Read-outs that look alike come from different tables or passages of the source.
Legend:
[1] = target: T1, human NK1 receptors (Homo sapiens, UniProt P25103); assay: Binding of the test substances to NK1 receptors in vitro ([3H]-Substance P displacement, CHO cell membranes); conditions: [3H]-Substance P as ligand; membranes of CHO cells expressing the human NK1 receptor; Ki calculated from IC50; read-out: pKi (NK1) (converted)
T1 construct: expressed in transfected cells; host or cells: CHO cells (membrane preparation)
Description: In The Netherlands, the affinity of the test substances to human NK1 receptors was measured in vitro.
The receptor binding studies were performed with [^3H]-Substance P as ligand. For the binding test, different samples of a membrane preparation of CHO cells (= egg cells of the Chinese hamster, Chinese hamster oocytes), which express the human NK1 receptor ("Accession Number" of the associated nucleic acid sequence = M74290; "Accession Number" of the associated protein sequence = P25103; cf. Takeda, Y.; Chou, K. B., Takeda, J.; Sachais, B.S. and Krause, J. E; Biochemical and Biophysical Research Communications, 179(3) (1991) 1232 - 1240), were incubated with a solution of the marked ligand, with the incubation mixtures containing no test substance or additions of different concentrations of test substance. Then, separation of bound and free ligands was performed in each of the samples with the aid of glass-fibre filtration. The fraction remaining in the filter was washed several times with buffer solution and then the radioactivity of the fraction remaining in the filter was measured using a beta scintillation counter.
For the compounds of Examples 1 to 14, that concentration which effects half maximum displacement of the bound ligand was determined as IC50 of the respective test substance. From this, the corresponding inhibition constant (Ki value) of the test substance was calculated, and was stated as the negative common logarithm of the Ki value (= pKi value). The pKi value is a measurement of the affinity of the test substances to human NK1 receptors.

[2] = target: T2, NK1 receptors (Cavia porcellus, UniProt P30547); assay: NK-1-receptor-antagonistic effectiveness in vivo in anaesthetised guinea pigs (NKA test stimulus, early hypotension); parameters: from tissue; host or cells: whole anaesthetised guinea pig (in vivo); species or system Pirbright-White guinea pigs; conditions: guinea pig, iv, read-out: ED50 iv after 1 min (cumulative) NK1 (early hypotension)
Excerpt: (§1) The NK-1- and NK-2-antagonistic activities of the test substances were investigated in anaesthetised guinea pigs in each case after intravenous (= i.v.) and oral (= p.o.) administration in vivo. With the present test model it is possible to detect both NK-2-antagonistic effects in three different organ systems (respiratory tracts, colon and circulation) and NK-1-antagonistic effects (rapid drop in blood pressure) in an animal simultaneously.
(§2) Pirbright-White guinea pigs of a body weight of 500-700 g were anaesthetised with ketamine/xylazine (67/13 mg/kg subcutaneously, initial dose, further doses administered as required). The animals were provided with an intravenous catheter in order to administer the substance and an intra-arterial catheter to measure the blood pressure. The animals were artificially ventilated via a tracheal cannula and the respiratory pressure was recorded by means of a pressure transducer. A balloon was introduced into the distal colon of the animals for manometric recording of colon motility by means of a pressure transducer. Blood pressure, heart rate, respiratory pressure and colonic pressure were measured continuously for each animal and plotted on a recorder and by means of a digital data-processing system. […] The second phase of delayed hypotension (= phase of maximum hypotension after 2-5 min.) on the other hand is mediated via NK-2 receptors, since they can be blocked by specific NK-2 receptor antagonists. […] Table 6: NK-1- and NK-2-receptor-antagonistic effective-ness of the test substances of Formula I on guinea pigs in vivo after intravenous administration
(§3) These ED50 values obtained from cumulative dose effect curves are plotted in table 6.
(§4) The antagonistic effects of the test substances were then determined as "area under the curve" ("AUC") over the investigation period after administration of the test substances (1 - 180 min after administration) and the ED50 values after oral administration obtained therefrom were plotted in table 7. Table 7: NK-1- and NK-2-receptor-antagonistic effective-ness of the test substances of Formula I on guinea pigs in vivo after oral administration

[3] = target: T3, cloned human NK2 receptors (Homo sapiens, UniProt P21452); assay: Ca2+ measurements using FLIPR for NK2 activity in CHO cells; type: cell-based; conditions: NKA 10^-7 M as agonist; compound applied 7 min before; pA2 calculated from IC50
T3 construct: expressed in transfected cells
T3 sequence (P21452 1-398): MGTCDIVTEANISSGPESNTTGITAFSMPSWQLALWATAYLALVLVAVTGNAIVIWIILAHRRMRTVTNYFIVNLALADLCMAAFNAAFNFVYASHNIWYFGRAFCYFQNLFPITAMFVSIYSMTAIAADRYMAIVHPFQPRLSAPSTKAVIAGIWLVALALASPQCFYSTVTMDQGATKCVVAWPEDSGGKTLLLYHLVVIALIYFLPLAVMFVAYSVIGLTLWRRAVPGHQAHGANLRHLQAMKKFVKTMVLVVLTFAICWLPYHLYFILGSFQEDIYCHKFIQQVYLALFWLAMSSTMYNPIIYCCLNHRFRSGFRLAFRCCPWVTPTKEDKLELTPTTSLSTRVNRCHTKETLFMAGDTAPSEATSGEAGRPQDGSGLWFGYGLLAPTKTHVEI
Excerpt: (§5) The NK receptor is coupled to Gq.
(§6) All steps were done under sterile conditions. […] The results are summarized in table 5: Table 5: pA2 data for NK1 and NK2: […]

[4] = target: T4, NK2 receptors (Cavia porcellus, UniProt Q64077); assay: NK-2-receptor-antagonistic effectiveness in vivo in anaesthetised guinea pigs (NKA test stimulus: late hypotension, bronchoconstriction, colonic pressure); parameters: from tissue; host or cells: whole anaesthetised guinea pig (in vivo); species or system Pirbright-White guinea pigs; conditions: guinea pig, iv
T4 sequence (Q64077 1-402): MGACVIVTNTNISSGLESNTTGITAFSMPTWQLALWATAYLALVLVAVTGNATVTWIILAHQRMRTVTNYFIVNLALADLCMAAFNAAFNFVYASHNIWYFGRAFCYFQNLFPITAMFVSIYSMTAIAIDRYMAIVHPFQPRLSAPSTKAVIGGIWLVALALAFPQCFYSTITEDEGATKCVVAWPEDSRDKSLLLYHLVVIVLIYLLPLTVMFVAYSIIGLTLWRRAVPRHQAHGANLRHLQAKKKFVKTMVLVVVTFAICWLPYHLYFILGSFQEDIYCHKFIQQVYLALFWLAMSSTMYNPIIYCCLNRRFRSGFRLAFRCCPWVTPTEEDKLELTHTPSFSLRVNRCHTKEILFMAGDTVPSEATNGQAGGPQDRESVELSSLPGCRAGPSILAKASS
Excerpt: as §1, §2, §3, §4

[5] = target: T5, cloned human NK1 receptors (Homo sapiens, UniProt P25103); assay: Ca2+ measurements using FLIPR for NK1 activity in CHO cells; type: cell-based; conditions: substance P 10^-8 M as agonist; compound applied 7 min before; pA2 calculated from IC50
T5 construct: expressed in transfected cells
Excerpt: as §5, §6

[6] = target: T6, human NK2 receptors (Homo sapiens, UniProt P21452); assay: Binding of the test substances to NK2 receptors in vitro ([3H]-SR 48968 displacement, CHO cell membranes); conditions: [3H]-SR 48968 as ligand; membranes of CHO cells expressing the human NK2 receptor; 90 min incubation; Ki calculated from IC50; read-out: pKi (NK2) (converted)
T6 construct: expressed in transfected cells; host or cells: CHO cells (membrane preparation)
T6 sequence (P21452 1-398): T3 sequence (P21452 1-398)
Description: The affinity of the test substances to human NK2 receptors was measured in vitro. The ability of the test substances to displace the selective NK2 receptor antagonist SR 48968 (= saredutant) used as reference ligand from its corresponding bond was determined.
The receptor binding studies were carried out with radioactively marked [^3H]-SR 48968 (from Amersham) as ligand. For the binding test, different samples of a membrane preparation of CHO cells (= egg cells of the Chinese hamster, Chinese hamster oocytes), which express the human NK2 receptor (for preparation, see N.P. Gerard et al., Journal of Biological Chemistry 265/33 (1990) 20455-20462), were incubated for 90 minutes (= min.) with a solution of the marked ligand, with the incubation mixtures containing no test substance or additions of different concentrations of test substance. Then in each case the membrane-bound ligands in the samples were separated from free ligands by filtration. The fraction remaining in the filter was washed several times with buffer solution, before its radioactivity was measured using a liquid scintillation counter. That concentration which effects half-maximum displacement of the bound reference ligand was determined as IC50 of the respective test substance. The inhibition constant (Ki value) of the test substance was calculated from the respective IC50 value, and was stated as the negative logarithmised value thereof (pKi).
If several measurements were performed, the average thereof was listed each time. The pKi value is a measurement of the affinity of the test substances to human NK2 receptors.

[7] = target: T2, NK1 receptors; assay: Functional NK1 antagonism on isolated guinea pig aorta ring preparations (Substance P induced relaxation); parameters: from tissue; host or cells: guinea pig aorta ring preparations; species or system Pirbright-White guinea pigs
Description: In The Netherlands, the action antagonistic to NK1 receptors of the test substances was measured in vitro on isolated ring preparations, kept in an oxygenated nutrient solution, of the aortas of Pirbright-White guinea pigs.
In order to measure the contraction of the vessel muscles, the preparations were fixed to a hook, joined by a thread to a force measuring apparatus and the contractions were recorded in each case on a plotter. The aorta preparations were tonicised with phenylephrine. […] The relaxations before and after the administration of the test substance were quantified in percent. The effective concentration of the half maximum inhibition of the relaxation of the tone (= EC50) was calculated. The negative common logarithm of the EC50 value (= pEC50) was given as characteristic variable. The pEC50 value is a measurement of the functional effectiveness of the test substances on NK1 receptors.

[8] = target: T4, NK2 receptors; assay: Functional NK2 antagonism on isolated guinea pig gall-bladder preparations (NKA induced contraction); parameters: from tissue; host or cells: guinea pig gall-bladder preparations; species or system Pirbright-White guinea pigs
Description: The NK2 receptor-antagonising action of the test substances was determined on isolated gall-bladder preparations from Pirbright-White guinea pigs, held in an oxygen-saturated nutrient solution. To this end, the preparations were fastened on one hand in the nutrient solution to organ holders and on the other hand on a force meter by a thread.
The concentration of the test substances was increased iteratively in the subsequent experiments as a function of the result in logarithmic whole or half steps, until at least one concentration above or below 50% inhibition of contraction was determined (up to at most 10^-5 mol/l). For each concentration, the average value of inhibition of contraction was calculated from 2 to 4 preparations. In each case, the concentration of half-maximum inhibition (IC50) per test substance was calculated as characteristic variable.

[9] = read-out: ED50 iv after 1 min (cumulative) NK2 (broncho-constriction)
[10] = read-out: ED50 iv after 1 min (cumulative) NK2 (colonic motility)
[11] = read-out: ED50 iv after 1 min (cumulative) NK2 (late hypotension)

T2 sequence (P30547 whole entry): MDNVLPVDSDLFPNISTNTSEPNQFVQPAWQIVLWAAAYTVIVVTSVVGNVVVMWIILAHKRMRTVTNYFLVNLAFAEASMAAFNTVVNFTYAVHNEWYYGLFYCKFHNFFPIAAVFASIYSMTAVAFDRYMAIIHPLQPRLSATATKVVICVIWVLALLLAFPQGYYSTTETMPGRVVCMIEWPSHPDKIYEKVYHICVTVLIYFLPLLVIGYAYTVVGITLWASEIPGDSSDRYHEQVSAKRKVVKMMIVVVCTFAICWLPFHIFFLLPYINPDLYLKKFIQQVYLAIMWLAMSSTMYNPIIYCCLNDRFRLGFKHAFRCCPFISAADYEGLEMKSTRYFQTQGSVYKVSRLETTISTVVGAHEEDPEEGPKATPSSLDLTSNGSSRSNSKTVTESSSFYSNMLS
T1 sequence (P25103 whole entry): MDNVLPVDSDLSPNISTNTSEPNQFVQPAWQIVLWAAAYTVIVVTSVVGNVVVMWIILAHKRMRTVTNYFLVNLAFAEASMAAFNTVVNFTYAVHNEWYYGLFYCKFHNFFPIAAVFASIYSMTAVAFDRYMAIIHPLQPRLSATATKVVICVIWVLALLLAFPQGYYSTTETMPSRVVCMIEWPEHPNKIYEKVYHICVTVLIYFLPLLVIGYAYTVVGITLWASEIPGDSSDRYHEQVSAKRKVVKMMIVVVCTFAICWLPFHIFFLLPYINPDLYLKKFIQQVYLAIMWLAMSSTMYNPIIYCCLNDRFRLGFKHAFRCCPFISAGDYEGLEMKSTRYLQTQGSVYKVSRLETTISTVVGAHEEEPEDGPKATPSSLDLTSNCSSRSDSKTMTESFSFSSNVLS
T5 sequence (P25103 whole entry): as above

| Compound | Ki [1] | ED50 [2] | Kb [3] | ED50 [4, 9] | ED50 [4, 10] | ED50 [4, 11] | Kb [5] | Ki [6] | EC50 [7] | IC50 [8] |
| --- | --- | --- | --- | --- | --- | --- | --- | --- | --- | --- |
| CN(C[C@@H](CCN1CCN([C@@H](c2ccsc2)[C@H](O)CO)CC1)c1ccc(Cl)c(Cl)c1)C(=O)c1cc(C#N)cc2ccccc12 [Compound 8, 3-cyano-N-[(2S)-2-(3,4-dichlorophenyl)-4-{4-[(1S,2S)-2,3-dihydroxy-1-(3-thienyl)propyl]piperazin-1-yl}butyl]-N-methyl-1-naphthamide] | 7.94 nM | 0.07 µmol/kg | 1.26 nM | 1.13 µmol/kg | 0.135 µmol/kg | 0.803 µmol/kg | 0.631 nM | 31.6 nM |  |  |
| CN(C[C@@H](CCN1CCN([C@@H](c2ccsc2)[C@H]2COC(=O)O2)CC1)c1ccc(Cl)c(Cl)c1)C(=O)c1cc(C#N)cc2ccccc12 [Compound 10, 3-cyano-N-[(2S)-2-(3,4-dichlorophenyl)-4-{4-[(S)-[(4S)-2-oxo-1,3-dioxolan-4-yl](3-thienyl)methyl]piperazin-1-yl}butyl]-N-methyl-1-naphthamide] | 10 nM | 0.041 µmol/kg |  | 0.045 µmol/kg | 0.109 µmol/kg | 0.04 µmol/kg |  | 100 nM |  |  |
| CN(C[C@@H](CCN1CCN([C@@H](c2ccsc2)[C@H](O)[C@@H](O)[C@H](O)CO)CC1)c1ccc(Cl)c(Cl)c1)C(=O)c1cc(C#N)cc2ccccc12 [Compound 5, 3-cyano-N-[(2S)-2-(3,4-dichlorophenyl)-4-{4-[(1S,2S,3R,4R)-2,3,4,5-tetrahydroxy-1-(3-thienyl)pentyl]piperazin-1-yl}butyl]-N-methyl-1-naphthamide] | 1.26 nM |  |  |  |  |  |  | 50.1 nM | 0.1 nM | 31.6 nM |
| CN(C[C@@H](CCN1CCN([C@@H](c2cccs2)[C@H](O)CO)CC1)c1ccc(Cl)c(Cl)c1)C(=O)c1cc(C#N)cc2ccccc12 [Compound 9, 3-cyano-N-[(2S)-2-(3,4-dichlorophenyl)-4-{4-[(1R,2S)-2,3-dihydroxy-1-(2-thienyl)propyl]piperazin-1-yl}butyl]-N-methyl-1-naphthamide] | 10 nM | 0.099 µmol/kg |  | 0.943 µmol/kg | 0.287 µmol/kg | 1.04 µmol/kg | 3.16 nM | 63.1 nM |  |  |
| CN(C[C@@H](CCN1CCN([C@@H](c2ccccc2)[C@H](O)CO)CC1)c1ccc(Cl)c(Cl)c1)C(=O)c1cc(C#N)cc2ccccc12 [Compound 23, 3-cyano-N-[(2S)-2-(3,4-dichlorophenyl)-4-{4-[(1S,2S)-2,3-dihydroxy-1-phenylpropyl]piperazin-1-yl)butyl]-N-methyl-1-naphthamide] |  | 0.029 µmol/kg |  | 0.725 µmol/kg | 0.961 µmol/kg | 1.17 µmol/kg |  |  |  |  |

— patent EP1954678B1, “NOVEL NK1 AND NK2 ANTAGONISTS” (Abbott Products GmbH, priority 2005, dated 2007)
